Values joined by “and” are separate entries in the source; they are usually repeats but may differ in a detail not shown here. Identical values can stand only once. Inconclusive results and toxic doses are left out. The calls were made as follows: active = survival T/C of 150% or more; inactive = T/C below 125% in these data.
Tested on: P388 leukemia ip, CD2F1 mice, survival T/C
Assay: NCI In Vivo Anticancer Drug Screen. Data for tumor model P388 Leukemia (intraperitoneal) in CD2F1 (CDF1) mice
Details: endpoint: median survival time, higher = longer survival
In short: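 Mice carrying the transplanted tumor received test compound or vehicle. Survival was recorded in each group, and the value is the treated-group measurement divided by that of the vehicle-treated control group.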

[1] = dose: 100.0 mg/kg/injection, schedule: Q01DX009 (ip), vehicle: saline with Tween-80
[2] = dose: 200.0 mg/kg/injection, schedule: Q01DX009 (ip), vehicle: saline with Tween-80
[3] = dose: 50.0 mg/kg/injection, schedule: Q01DX009 (ip), vehicle: saline with Tween-80
[4] = dose: 50.0 mg/kg/injection, schedule: Q01DX005 (ip), vehicle: saline with Tween-80
[5] = dose: 100.0 mg/kg/injection, schedule: Q01DX005 (ip), vehicle: saline with Tween-80
[6] = dose: 60.0 mg/kg/injection, schedule: Q01DX005 (ip), vehicle: saline with Tween-80
[7] = dose: 120.0 mg/kg/injection, schedule: Q01DX005 (ip), vehicle: saline with Tween-80
[8] = dose: 240.0 mg/kg/injection, schedule: Q01DX005 (ip), vehicle: saline with Tween-80

Measured: T/C

O=C1CCC(=O)N1CC(O)COc1ccccc1 (centres undefined)
inactive: [1] 95 % of control | [2] 95 % of control | dose: 400.0 mg/kg/injection, schedule: Q01DX009 (ip), vehicle: saline with Tween-80 100 % of control

O=C(c1ccccc1)C(F)(F)C(F)(F)F
inactive: dose: 25.0 mg/kg/injection, schedule: Q01DX009 (ip), vehicle: saline with Tween-80 107 % of control | [3] 109 % of control | [1] 110 % of control | [2] 109 % of control

CCOC(=O)OCC1=Nc2cccc3cccc(c23)N1
inactive: dose: 50.0 mg/kg/injection, schedule: Q01DX005 (ip), vehicle: Klucel (hydroxypropylcellulose) (HPC) 100 % of control | dose: 100.0 mg/kg/injection, schedule: Q01DX005 (ip), vehicle: Klucel (hydroxypropylcellulose) (HPC) 110 % of control | dose: 200.0 mg/kg/injection, schedule: Q01DX005 (ip), vehicle: Klucel (hydroxypropylcellulose) (HPC) 108 % of control

C=CC(=O)NC(C)C(=O)O (centres undefined)
inactive: dose: 50.0 mg/kg/injection, schedule: Q01DX009 (ip), vehicle: saline 100 % of control | dose: 100.0 mg/kg/injection, schedule: Q01DX009 (ip), vehicle: saline 99 % of control | dose: 200.0 mg/kg/injection, schedule: Q01DX009 (ip), vehicle: saline 107 % of control

O=C(O)C(Cc1cnc[nH]1)[N-]C[N-]C(Cc1cnc[nH]1)C(=O)O.[Pd+2] (centres undefined)
inactive: dose: 50.0 mg/kg/injection, schedule: Q01DX005 (ip), vehicle: saline 100 % of control | dose: 100.0 mg/kg/injection, schedule: Q01DX005 (ip), vehicle: saline 97 % of control | dose: 200.0 mg/kg/injection, schedule: Q01DX005 (ip), vehicle: saline 100 % of control

CC12Cc3cnoc3C=C1CCC1C2CCC2(C)C1CCC2(C)O (centres undefined)
inactive: [4] 93 % of control | [5] 86 % of control

CCOC(=O)C(Cc1ccc(O)cc1)NC(=O)c1cc2c(cn1)[nH]c1ccccc12 (centres undefined)
inactive: [6] 101 % of control | [7] 117 % of control

CCc1cc2c(cc1C(C)=O)C(C)(C)CCC2(C)C
inactive: [3] 94 % of control | [1] 110 % of control

O=c1[nH]c2cc(Cl)ccc2nc1/C=C(\O)c1ccccc1O
inactive: [6] 86 % of control and 95 % of control | [7] 92 % of control | [8] 89 % of control and 96 % of control

CC(C)(CCN)c1cc(CC(C)(C)C2(C)OCCO2)no1
inactive: [4] 113 % of control | [5] 108 % of control | dose: 200.0 mg/kg/injection, schedule: Q01DX005 (ip), vehicle: saline with Tween-80 113 % of control

C=CCc1c2[n+](cc3c(OC)c(OC)ccc13)CCc1cc3c(cc1-2)OCO3
inactive: dose: 0.4 mg/kg/injection, schedule: Q01DX005 (ip), vehicle: saline 107 % of control and 92 % of control | dose: 0.8 mg/kg/injection, schedule: Q01DX005 (ip), vehicle: saline 99 % of control and 111 % of control | dose: 1.6 mg/kg/injection, schedule: Q01DX005 (ip), vehicle: saline 100 % of control and 103 % of control

NCc1cccn1OCc1ccccc1
inactive: [6] 100 % of control | [7] 106 % of control | [8] 104 % of control

N#C/C(=C\Nc1ccccn1)C(=O)C1CC1
inactive: [6] 100 % of control | [7] 92 % of control | [8] 91 % of control

CCOC(=O)C1Cc2nc(N)ncc2C1=O (centres undefined)
inactive: dose: 15.0 mg/kg/injection, schedule: Q01DX009 (ip), vehicle: saline with Tween-80 96 % of control | dose: 30.0 mg/kg/injection, schedule: Q01DX009 (ip), vehicle: saline with Tween-80 107 % of control | dose: 60.0 mg/kg/injection, schedule: Q01DX009 (ip), vehicle: saline with Tween-80 114 % of control

CC(C1CC2(C)OC2(CO)C(=O)O1)C1CCC2C3CC4OC45C(O)C4OC4C(=O)C5(C)C3CCC12C (centres undefined)
inactive: dose: 5.0 mg/kg/injection, schedule: Q01DX005 (ip), vehicle: Klucel (hydroxypropylcellulose) (HPC) 96 % of control | dose: 10.0 mg/kg/injection, schedule: Q01DX005 (ip), vehicle: Klucel (hydroxypropylcellulose) (HPC) 100 % of control | dose: 20.0 mg/kg/injection, schedule: Q01DX005 (ip), vehicle: Klucel (hydroxypropylcellulose) (HPC) 96 % of control | dose: 40.0 mg/kg/injection, schedule: Q01DX005 (ip), vehicle: Klucel (hydroxypropylcellulose) (HPC) 92 % of control | dose: 80.0 mg/kg/injection, schedule: Q01DX005 (ip), vehicle: Klucel (hydroxypropylcellulose) (HPC) 89 % of control

COc1ccc2ccc3c4c(c(=O)[nH]c3c2n1)CCC4
inactive: dose: 100.0 mg/kg/injection, schedule: Q04DX003 (ip), vehicle: saline 101 % of control | dose: 200.0 mg/kg/injection, schedule: Q04DX003 (ip), vehicle: saline 92 % of control | dose: 400.0 mg/kg/injection, schedule: Q04DX003 (ip), vehicle: saline 105 % of control

O=C(O)CNC(=O)C(CN1CC(=O)OC1c1ccc([N+](=O)[O-])cc1)N1C(=O)c2ccccc2C1=O (centres undefined)
inactive: dose: 25.0 mg/kg/injection, schedule: Q04DX003 (ip), vehicle: saline with Tween-80 100 % of control | dose: 50.0 mg/kg/injection, schedule: Q04DX003 (ip), vehicle: saline with Tween-80 100 % of control

C=C1C(=O)OC2/C=C(\C=O)C3OC3C3OC3(C)CC(OC(=O)/C(=C/C)CO)C12 (centres undefined)
inactive: dose: 3.12 mg/kg/injection, schedule: Q01DX005 (ip), vehicle: Klucel (hydroxypropylcellulose) (HPC) 100 % of control | dose: 6.25 mg/kg/injection, schedule: Q01DX005 (ip), vehicle: Klucel (hydroxypropylcellulose) (HPC) 110 % of control | dose: 12.5 mg/kg/injection, schedule: Q01DX005 (ip), vehicle: Klucel (hydroxypropylcellulose) (HPC) 110 % of control | dose: 25.0 mg/kg/injection, schedule: Q01DX005 (ip), vehicle: Klucel (hydroxypropylcellulose) (HPC) 101 % of control

Source: PubChem BioAssay AID330 (DTP/NCI, 2004)
